According to US20240124470A1, “FIVE-MEMBERED RING DERIVATIVE AND MEDICAL USE THEREOF” (SICHUAN HAISCO PHARMACEUTICAL CO., LTD., priority 2020, published 2024):

Columns and labels:
[1] = Stability test in human liver microsomes; format: in vitro ADME; conditions: human liver microsomes 0.5 mg/mL, 1 μM compound, NADPH, 37° C.
Method: (§1) 7. Stability Test in Human Liver Microsomes At 37° C., 1 μM of the test compound was incubated with human liver microsomes (0.5 mg/mL) supplemented with NADPH regeneration system for 5, 10, 20, 30 and 60 minutes, and then LC-MS/MS method was used to detect the concentration of the test compound in the generated sample. The half-life (T1/2) and inherent clearance rate (CLint(mic)) of the compound in human liver microsome solution were obtained by calculating at the corresponding time points and the remaining percentage of the compound.

[2] = Stability test in mouse liver microsomes; format: in vitro ADME; conditions: mouse liver microsomes 0.5 mg/mL, 1 μM compound, NADPH, 37° C.; for microsomal CLint at 1 μM: read-out: CLint(mic)
Method: as §1, with “3.” for “7.”, “Mouse” for “Human”, “mouse” for “human”

hERG potassium channel = target: T1, hERG potassium channel (Homo sapiens, UniProt Q12809); test: Effects on hERG potassium channels, manual whole cell patch-clamp in CHO cells; format: cell-based; conditions: hERG potassium current, room temperature
T1 construct: expressed in transfected cells
T1 sequence (Q12809 whole entry): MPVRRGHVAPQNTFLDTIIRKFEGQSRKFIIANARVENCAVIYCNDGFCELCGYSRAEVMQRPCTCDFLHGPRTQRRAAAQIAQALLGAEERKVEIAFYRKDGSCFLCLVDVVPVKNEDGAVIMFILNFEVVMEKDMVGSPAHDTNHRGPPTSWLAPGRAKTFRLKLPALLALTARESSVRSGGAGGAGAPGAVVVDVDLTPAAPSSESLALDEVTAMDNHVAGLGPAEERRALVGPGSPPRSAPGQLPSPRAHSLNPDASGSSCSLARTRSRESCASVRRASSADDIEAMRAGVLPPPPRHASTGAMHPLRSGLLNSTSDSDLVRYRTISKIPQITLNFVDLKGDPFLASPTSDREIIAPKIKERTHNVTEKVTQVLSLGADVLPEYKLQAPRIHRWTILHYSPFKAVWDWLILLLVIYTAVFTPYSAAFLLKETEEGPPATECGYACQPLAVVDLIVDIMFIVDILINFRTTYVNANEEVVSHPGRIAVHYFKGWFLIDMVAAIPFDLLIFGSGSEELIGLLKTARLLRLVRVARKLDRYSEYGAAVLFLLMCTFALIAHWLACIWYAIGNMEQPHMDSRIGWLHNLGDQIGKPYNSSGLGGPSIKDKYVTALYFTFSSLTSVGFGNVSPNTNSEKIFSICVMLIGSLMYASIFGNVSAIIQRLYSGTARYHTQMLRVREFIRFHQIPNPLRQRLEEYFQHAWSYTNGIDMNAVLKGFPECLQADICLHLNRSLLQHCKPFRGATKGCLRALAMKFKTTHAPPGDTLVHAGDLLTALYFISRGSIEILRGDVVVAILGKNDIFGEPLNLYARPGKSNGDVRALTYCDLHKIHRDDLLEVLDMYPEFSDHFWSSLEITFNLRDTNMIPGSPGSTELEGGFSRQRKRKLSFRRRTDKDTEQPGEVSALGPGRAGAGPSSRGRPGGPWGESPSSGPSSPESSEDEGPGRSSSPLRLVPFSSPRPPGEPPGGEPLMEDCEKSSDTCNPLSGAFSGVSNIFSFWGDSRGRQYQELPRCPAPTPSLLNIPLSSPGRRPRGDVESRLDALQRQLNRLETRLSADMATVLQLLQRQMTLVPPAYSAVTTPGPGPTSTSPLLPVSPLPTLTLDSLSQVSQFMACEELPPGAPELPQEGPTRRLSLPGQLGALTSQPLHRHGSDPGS
Source text: 2. Effects of the Compounds on hERG Potassium Channels
Experimental platform: electrophysiological manual patch-clamp system
Cell line: Chinese hamster ovary (CHO) cells stably expressing hERG potassium ion channel
Experimental method: For CHO (Chinese Hamster Ovary) cells stably expressing hERG potassium channel, whole cell patch-clamp technique was used to recorded hERG potassium channel current at room temperature in this experiment. The glass microelectrode is made of a glass electrode blank (BF150-86-10, Sutter) by a puller. The tip resistance after filling the liquid in the electrode is about 2-5 MΩ. The glass microelectrode can be connected to the patch-clamp amplifier by inserting the glass microelectrode into an amplifier probe. The clamping voltage and data recording are controlled and recorded by the pClamp 10 software through a computer. The sampling frequency is 10 kHz, and the filtering frequency is 2 kHz. After the whole cell records were obtained, the cells were clamped at −80 mV, and the step voltage that induced the hERG potassium current (IhERG) was depolarized from −80 mV to +20 mV for 2 s, then repolarized to −50 mV, and returned to −80 mV after 1 s. This voltage stimulation was given every 10 s, and the administration process was started after the hERG potassium current was confirmed to be stable (at least 1 minute). The compound was administered for at least 1 minute at each test concentration, and at least 2 cells (n≥2) were tested at each concentration.
Data analysis processing was carried out by using pClamp 10, GraphPad Prism 5 and Excel software. The inhibition degree of hERG potassium current (peak value of hERG tail current induced at −50 mV) at different compound concentrations was calculated by the following formula: Inhibition %=[1−(I/Io)]×100%.
Among the formula, Inhibition % represents the percentage of inhibition of hERG potassium current by the compound, and I and Io represent the amplitude of hERG potassium current after and before dosing, respectively.
Compound IC50 was calculated using GraphPad Prism 5 software by fitting according to the following equation:
Y=Bottom+(Top−Bottom)/(1+10^((LogIC50−X)×HillSlope))
Among the equation, X represents the Log value of the tested concentration of the test sample, Y represents the inhibition percentage at the corresponding concentration, and Bottom and Top represent the minimum and maximum inhibition percentage, respectively.

[3] = Stability test in canine liver microsomes; format: in vitro ADME; conditions: dog
Method: as §1, with “6.” for “7.”, “Canine” for “Human”, “canine” for “human”, “15, 30, 45” for “10, 20, 30”

PDE10A1 = target: T2, PDE10A1 (Homo sapiens, UniProt Q9Y233); test: PDE10A1 inhibition by fluorescence polarization; format: biochemical; conditions: PDE10A1 kit, read-out: IC50 (μM), inhibitory effect on PDE10A1
T2 construct: purchased Biomol (BPS Bioscience) BPS-60385
T2 sequence (Q9Y233 1-779 isoform Q9Y233-1): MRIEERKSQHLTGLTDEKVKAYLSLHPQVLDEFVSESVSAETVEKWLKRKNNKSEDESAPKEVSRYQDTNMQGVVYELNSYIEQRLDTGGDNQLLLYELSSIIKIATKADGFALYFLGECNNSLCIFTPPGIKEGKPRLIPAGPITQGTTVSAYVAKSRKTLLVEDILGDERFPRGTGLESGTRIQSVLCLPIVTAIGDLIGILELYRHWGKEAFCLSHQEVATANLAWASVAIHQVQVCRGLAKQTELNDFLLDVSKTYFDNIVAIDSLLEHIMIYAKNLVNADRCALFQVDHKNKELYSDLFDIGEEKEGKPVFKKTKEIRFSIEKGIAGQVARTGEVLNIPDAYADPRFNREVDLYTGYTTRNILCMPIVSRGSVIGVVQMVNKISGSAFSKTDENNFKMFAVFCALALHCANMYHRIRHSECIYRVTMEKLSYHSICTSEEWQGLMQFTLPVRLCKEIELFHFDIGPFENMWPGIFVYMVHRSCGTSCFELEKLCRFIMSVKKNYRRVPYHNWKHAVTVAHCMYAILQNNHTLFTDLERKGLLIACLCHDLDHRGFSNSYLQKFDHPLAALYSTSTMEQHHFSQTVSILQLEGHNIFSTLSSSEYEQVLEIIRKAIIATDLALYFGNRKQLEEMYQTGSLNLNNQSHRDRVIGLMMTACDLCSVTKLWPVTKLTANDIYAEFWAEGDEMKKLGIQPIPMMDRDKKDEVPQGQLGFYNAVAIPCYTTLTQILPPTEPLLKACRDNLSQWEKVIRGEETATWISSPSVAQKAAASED
Source text: 8. Activity of the Compounds on PDE10A1
In this experiment, the effect of the compounds on the inhibition of PDE10A1 activity was detected by the method of fluorescence polarization. PDE10A1 kit was used for detection (Biomol, BPS-60385). […]

[4] = Stability test in monkey liver microsomes; format: in vitro ADME
Method: as §1, with “4.” for “7.”, “Monkey” for “Human”, “monkey” for “human”, “15, 30, 45” for “10, 20, 30”

| half-life at 1 μM [1] [h] | microsomal CLint at 1 μM ([1]; read-out: CLint(mic)) [µL/min/mg] | half-life at 1 μM [2] [h] | microsomal CLint at 1 μM [2] [µL/min/mg] | microsomal CLint at 1 μM ([3]; microsomes) [µL/min/mg] | half-life at 1 μM ([3]; canine liver microsomes 0.5 mg/mL, 1 μM compound, NADPH, 37° C.) [h] | IC50 (PDE10A1) [µM] | half-life at 1 μM ([4]; monkey liver microsomes 0.5 mg/mL, 1 μM compound, NADPH, 37° C.) [h] | microsomal CLint at 1 μM ([4]; monkey, microsomes) [µL/min/mg] | SMILES | IC50 (hERG potassium channel) [µM] |
| --- | --- | --- | --- | --- | --- | --- | --- | --- | --- | --- |
| 2.88 | 8.01 | 2.17 | 10.6 |  |  |  |  |  | N#Cc1ccc(COc2cccc(-c3ccc(Cc4nc5ccc(C(=O)O)cc5n4C[C@@H]4CCO4)c(F)c3)n2)c(F)c1 [Compound DZ-6, reference compound] |  |
|  |  |  |  | 0.23 | 102 |  |  |  | N#Cc1ccc(COc2cccc(C3CCN(Cc4nc5sc(C(=O)O)cc5n4C[C@@H]4CCO4)CC3)n2)c(F)c1 [Compound 1, (S)-2-((4-(6-((4-cyano-2-fluorobenzyl)oxy)pyridin-2-yl)piperidin-1-yl)methyl)-1-(oxetan-2-ylmethyl)-1H-thieno[2,3-d]imidazole-5-carboxylic acid] | 33.6 |
|  |  | 93.1 | 0.252 |  |  |  |  |  | CC1(c2ccc(C#N)cc2F)Oc2cccc(C3CCN(Cc4nc5sc(C(=O)O)cc5n4C[C@@H]4CCO4)CC3)c2O1 (stereo partly shown) [Compound 5-2] | > 40 |
|  |  | 23.6 | 0.977 |  |  | > 500 | 14 | 1.6 | N#Cc1ccc(COc2cccc(C3=CCN(Cc4nc5sc(C(=O)O)cc5n4C[C@@H]4CCO4)CC3)n2)c(F)c1 [Compound 2, (S)-2-((6-((4-cyano-2-fluorobenzyl)oxy)-3′,6′-dihydro-[2,4′-bipyridin]-1′(2′H)-yl)methyl)-1-(oxetan-2-ylmethyl)-1H-thieno[2,3-d]imidazole-5-carboxylic acid] | 52.2 |
